According to PMC7745420 (ACS Omega, 2020):

Biological target: p97/VCP (Homo sapiens, UniProt P55072)
Assay: ATPase assay on purified human p97/VCP
Type: biochemical

Chain of p97/VCP (P55072 2-806): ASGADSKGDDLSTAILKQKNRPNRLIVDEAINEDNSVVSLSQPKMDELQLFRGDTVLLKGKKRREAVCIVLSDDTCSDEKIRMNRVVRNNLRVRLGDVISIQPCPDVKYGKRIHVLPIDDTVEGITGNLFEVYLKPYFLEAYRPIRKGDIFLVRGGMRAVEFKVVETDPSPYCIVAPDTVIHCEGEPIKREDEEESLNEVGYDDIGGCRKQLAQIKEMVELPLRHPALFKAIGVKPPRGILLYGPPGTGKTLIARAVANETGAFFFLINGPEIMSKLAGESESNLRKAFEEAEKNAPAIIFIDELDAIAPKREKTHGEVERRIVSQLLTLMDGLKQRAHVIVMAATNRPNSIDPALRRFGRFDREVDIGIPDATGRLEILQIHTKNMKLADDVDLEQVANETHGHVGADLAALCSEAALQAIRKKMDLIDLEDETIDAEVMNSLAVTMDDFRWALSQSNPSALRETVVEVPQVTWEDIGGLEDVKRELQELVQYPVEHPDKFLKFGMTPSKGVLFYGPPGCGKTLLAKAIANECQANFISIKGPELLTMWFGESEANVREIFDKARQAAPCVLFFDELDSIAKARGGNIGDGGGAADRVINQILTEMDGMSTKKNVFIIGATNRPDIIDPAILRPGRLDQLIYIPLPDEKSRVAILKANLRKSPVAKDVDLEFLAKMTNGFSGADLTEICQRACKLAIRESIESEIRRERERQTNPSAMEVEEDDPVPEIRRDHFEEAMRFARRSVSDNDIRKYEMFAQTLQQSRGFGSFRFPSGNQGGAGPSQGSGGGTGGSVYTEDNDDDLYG

IC50: 900 ± 110 nM
Compound: NCCc1cn(-c2nc(NCc3ccccc3)c3ccccc3n2)c2ccccc12 [FQ393, 2-[3-(2-Aminoethyl)-1H-indol-1-yl]-N-benzylquinazolin-4-amine]
